Test results: ChEMBL document CHEMBL3244121, “Esters of 4-[3-[2-(trifluoromethyl)phenothiazin-10-yl]propyl]-1-piperazieneethanol and related compounds as long-acting antipsychotic agents. Synthesis of the 1-adamantoate, the first crystalline base” (1977)

What follows are molecules tested on Rattus norvegicus (assay: Antipsychotic activity in albino rat assessed as duration of inhibition of conditioned avoidance behavior at 25 mg/kg administered intramuscularly). Details: route intramuscular.
Type: functional

| SMILES | Time [days] |
| --- | --- |
| CCCCCC(=O)OCCN1CCN(CCCN2c3ccccc3Sc3ccc(C(F)(F)F)cc32)CC1.Cl | 8 |
| CCCCCCCCCC(=O)OCCN1CCN(CCCN2c3ccccc3Sc3ccc(C(F)(F)F)cc32)CC1 [FLUPHENAZINE DECANOATE] | 12 |
| CCCCCCC(=O)OCCN1CCN(CCCN2c3ccccc3Sc3ccc(C(F)(F)F)cc32)CC1 [FLUPHENAZINE ENANTHATE] | 28 |
| CCCCCCCCCCCC(=O)OCCN1CCN(CCCN2c3ccccc3Sc3ccc(C(F)(F)F)cc32)CC1.Cl | 28 |
| CCCCCCCCCCCCCC(=O)OCCN1CCN(CCCN2c3ccccc3Sc3ccc(C(F)(F)F)cc32)CC1.Cl | 28 |
| CC(C)CCC(=O)OCCN1CCN(CCCN2c3ccccc3Sc3ccc(C(F)(F)F)cc32)CC1.Cl | 8 |
